Measured values from PMC5118533, “Phase II Trial of Angiotensin-(1-7) for the Treatment of Patients with Metastatic Sarcoma” (Sarcoma, 2016).
Where two headings read alike, the source gives them in different places.

How the values were obtained:
[1] = Plasma Ang-(1-7) concentration, radioimmunoassay; assay type: in vivo; settings: human, sc, median, RIA, P < 0.05 vs baseline
Procedure: In the phase I trial, statistically significant changes in PlGF concentrations were identified 4 hours after the first Ang-(1-7) injection. To prospectively evaluate this biomarker, PlGF levels as well as VEGF, Ang-(1-7), Ang II, and Ang I were measured prior to the first dose, 4 hours after the first dose, and after 21 days of treatment in the phase II trial. Blood samples were immediately placed on ice and processed within 30 minutes of collection. For the angiotensin peptides, blood was taken in an EDTA containing tube with a cocktail of inhibitors to prevent in vitro generation or degradation of peptides, as previously described. Plasma samples were stored at −80°C. Concentrations of Ang-(1-7) (developed by laboratory), Ang II (Alpco, Windham, NH), and Ang I (Peninsula, San Carlos, CA) were measured by the Hypertension Core Facility of Wake Forest University using three established radioimmunoassay methods. Aliquots of plasma from the same time points were assayed by Aushon Biosystems (Billerica, MA) using Searchlight ELISA technology to quantify circulating vascular endothelial growth factor (VEGF) and placental growth factor (PlGF). […]
The study was designed with 87% power to detect a response rate by RECIST criteria of 10% in the study population. […] Levels of biomarker expression over time were evaluated using nonparametric, Wilcoxon signed rank tests. […]

[2] = Phase II trial: adverse events (CTCAE v3.0); assay type: in vivo, human
Procedure: Ang-(1-7) was administered by subcutaneous injection once daily continuously. One cycle was defined as a 21-day period. Toxicities were assessed weekly during the first cycle and on the first day of each subsequent cycle. In the absence of unacceptable treatment-related toxicity, patients continued treatment until disease progression.
Two dose cohorts were planned. In the first cohort, twenty patients were treated at a dose of 20 mg daily which is similar to the weight-based dose of 400 mcg/kg identified as the MTD in the phase I study. Unlike the phase I study, this study utilized continuous daily dosing rather than five days every three weeks. A planned interim safety evaluation was performed after the enrollment of 10 patients in the first cohort. […] Patients in this cohort would have received Ang-(1-7) at a dose of 10 mg daily if excessive toxicities had been observed in the 20 mg cohort. Safety events that would trigger dose deescalation included 3 strokes in any cohort or other evidence of excessive toxicity.
Tumor measurements were performed using RECIST version 1.1 prior to initiation of treatment and then every two cycles until disease progression or unacceptable toxicity. Toxicities were graded using the Common Terminology Criteria for Adverse Events, version 3.0. […]

[3] = phase I, ref [16], cited from earlier work
Excerpt: A phase I trial using subcutaneous administration of Ang-(1-7) for the treatment of patients with advanced solid tumors was previously reported. This study evaluated the maximum tolerated dose (MTD), toxicities, and pharmacokinetics of Ang-(1-7) when given subcutaneously once daily for five consecutive days on a 21-day cycle. This study identified 400 mcg/kg as the MTD for this schedule.

## CC[C@H](C)[C@H](NC(=O)[C@H](Cc1ccc(O)cc1)NC(=O)[C@@H](NC(=O)[C@H](CCCNC(=N)N)NC(=O)[C@@H](N)CC(=O)O)C(C)C)C(=O)N[C@@H](Cc1c[nH]cn1)C(=O)N1CCC[C@H]1C(=O)O [Ang-(1-7), Angiotensin-(1-7)]
[1]; 4 hours after first dose, 20 mg s.c.
  level at 4 h: 0.0611 ng/mL
[1]; day 22, 20 mg daily s.c.
  level at 528 h: 0.0412 ng/mL
[2]; 20 patients, all attributed to progressive cancer, felt unrelated to treatment
  deaths on study or within 30 days of completing treatment: Three
[2]; in vivo
  pregnancy outcome: delivered a healthy child
[3]; 400 mcg/kg dose level
  serious adverse event at least possibly related: deep vein thrombosis
[3]; 400 mcg/kg s.c., considerable intra- and interpatient variability
  half-life at the MTD: 36 min
[3]; 700 mcg/kg dose level (first event named)
  serious adverse event at least possibly related: stroke
[3]; 700 mcg/kg dose level (second event named)
  serious adverse event at least possibly related: cranial neuropathy
[3]; s.c. once daily for five consecutive days on a 21-day cycle, advanced solid tumors
  maximum tolerated dose (MTD): 0.4 mg/kg
